As usually defined, the IC50 is the midpoint of a concentration-inhibition curve.

One assay addresses Bcr/Abl fusion protein (Homo sapiens, UniProt P00519). The assay can be described thus: Inhibition of BCR-ABL1 (unknown origin) assessed as ATP remaining by Kinase-Glo luminescent kinase assay.
The next assay concerns K562. The assay can be described thus: cells. The class given is functional, cell-based. The following applies: Homo sapiens, K562, 48 h.

Bcr/Abl fusion protein, sequence (P00519 whole entry, the tested form may be a part): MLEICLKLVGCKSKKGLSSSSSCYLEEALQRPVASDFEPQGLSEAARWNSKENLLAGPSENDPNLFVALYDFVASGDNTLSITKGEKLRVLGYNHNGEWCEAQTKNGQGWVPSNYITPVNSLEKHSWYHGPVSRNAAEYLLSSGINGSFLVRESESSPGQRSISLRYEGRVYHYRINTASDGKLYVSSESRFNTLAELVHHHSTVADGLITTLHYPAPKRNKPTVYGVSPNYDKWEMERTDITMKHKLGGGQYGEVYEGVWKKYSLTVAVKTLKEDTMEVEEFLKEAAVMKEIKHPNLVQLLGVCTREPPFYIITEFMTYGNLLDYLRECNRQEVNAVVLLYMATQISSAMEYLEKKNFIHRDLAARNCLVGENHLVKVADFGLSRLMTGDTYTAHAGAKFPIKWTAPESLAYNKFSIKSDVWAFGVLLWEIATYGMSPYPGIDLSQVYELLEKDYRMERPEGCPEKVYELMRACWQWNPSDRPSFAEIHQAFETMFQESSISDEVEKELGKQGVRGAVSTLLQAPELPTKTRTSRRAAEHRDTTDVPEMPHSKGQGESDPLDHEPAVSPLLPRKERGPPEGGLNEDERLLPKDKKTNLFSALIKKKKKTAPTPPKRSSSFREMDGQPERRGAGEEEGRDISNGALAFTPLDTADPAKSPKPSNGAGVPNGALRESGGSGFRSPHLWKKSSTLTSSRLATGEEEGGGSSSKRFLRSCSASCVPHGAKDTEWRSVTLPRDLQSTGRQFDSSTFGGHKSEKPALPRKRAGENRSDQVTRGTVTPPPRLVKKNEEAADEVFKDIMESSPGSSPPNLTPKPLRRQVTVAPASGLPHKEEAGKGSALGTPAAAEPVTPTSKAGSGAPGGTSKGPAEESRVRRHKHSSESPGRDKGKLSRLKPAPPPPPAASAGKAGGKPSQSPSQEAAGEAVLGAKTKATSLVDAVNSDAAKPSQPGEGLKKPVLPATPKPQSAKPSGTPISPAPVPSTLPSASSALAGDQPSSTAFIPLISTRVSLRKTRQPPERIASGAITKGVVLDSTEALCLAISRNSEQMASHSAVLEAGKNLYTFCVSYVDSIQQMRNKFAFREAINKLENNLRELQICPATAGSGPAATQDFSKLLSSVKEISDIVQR
Bcr/Abl fusion protein, sequence (P11274 whole entry, further chain, the tested form may be a part): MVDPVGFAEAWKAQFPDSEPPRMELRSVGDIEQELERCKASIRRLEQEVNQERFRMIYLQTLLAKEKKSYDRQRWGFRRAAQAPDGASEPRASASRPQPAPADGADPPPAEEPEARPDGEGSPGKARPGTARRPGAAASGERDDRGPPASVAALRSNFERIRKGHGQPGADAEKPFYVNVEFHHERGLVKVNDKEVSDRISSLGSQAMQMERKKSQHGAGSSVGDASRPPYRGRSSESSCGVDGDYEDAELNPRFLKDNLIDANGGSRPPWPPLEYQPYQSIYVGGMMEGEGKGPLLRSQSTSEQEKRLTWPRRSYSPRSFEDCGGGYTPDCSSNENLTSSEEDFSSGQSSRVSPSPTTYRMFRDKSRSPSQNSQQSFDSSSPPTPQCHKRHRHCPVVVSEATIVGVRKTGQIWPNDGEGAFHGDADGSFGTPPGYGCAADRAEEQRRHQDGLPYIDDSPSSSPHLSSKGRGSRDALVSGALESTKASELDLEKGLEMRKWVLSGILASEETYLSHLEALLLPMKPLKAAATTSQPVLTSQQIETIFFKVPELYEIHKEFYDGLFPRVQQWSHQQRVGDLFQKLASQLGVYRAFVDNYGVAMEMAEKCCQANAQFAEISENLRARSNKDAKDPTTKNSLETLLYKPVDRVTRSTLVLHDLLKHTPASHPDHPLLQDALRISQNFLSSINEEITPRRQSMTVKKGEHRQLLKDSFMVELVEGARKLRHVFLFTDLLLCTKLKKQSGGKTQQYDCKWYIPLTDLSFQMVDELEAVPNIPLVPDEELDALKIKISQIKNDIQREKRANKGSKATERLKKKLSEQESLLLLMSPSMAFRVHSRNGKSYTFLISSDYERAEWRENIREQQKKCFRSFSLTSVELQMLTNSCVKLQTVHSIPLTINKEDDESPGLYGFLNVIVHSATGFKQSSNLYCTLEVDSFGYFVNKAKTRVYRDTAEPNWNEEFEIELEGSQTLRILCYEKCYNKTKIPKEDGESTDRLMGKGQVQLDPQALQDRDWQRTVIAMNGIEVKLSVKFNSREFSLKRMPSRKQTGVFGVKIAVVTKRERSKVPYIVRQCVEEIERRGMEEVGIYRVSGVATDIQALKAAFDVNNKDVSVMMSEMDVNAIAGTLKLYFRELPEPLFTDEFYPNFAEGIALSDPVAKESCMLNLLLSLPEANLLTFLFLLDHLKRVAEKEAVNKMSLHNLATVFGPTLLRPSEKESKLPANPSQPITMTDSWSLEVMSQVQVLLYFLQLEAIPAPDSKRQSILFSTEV
Description for K562: Antitumor activity against human K562 cells assessed as inhibition of cell growth after 48 hrs by MTT assay

As to `CCc1ccc(C(=O)Nc2ccc(C)c(-n3cc(-c4cccnc4)cn3)c2)cc1`, the IC50 on Bcr/Abl fusion protein was 41 nM; in the assay on K562 it was 6520 nM.
The matching figures for `Cc1ccc(NC(=O)c2cccc(Cl)c2)cc1-n1cc(-c2cccnc2)cn1`: 15.9 nM and 1320 nM.
The matching figures for `Cc1ccc(NC(=O)c2ccc(CN3CCCN(C)CC3)cc2)cc1-n1cc(-c2cccnc2)cn1`: 26.6 nM and 8650 nM.
In the case of `COc1ccc(C(=O)Nc2ccc(C)c(-n3cc(-c4cccnc4)cn3)c2)cc1`, the IC50 at Bcr/Abl fusion protein came out at 46.2 nM; in the assay on K562, 18300 nM.
For `Cc1ccc(NC(=O)c2ccc(F)cc2)cc1-n1cc(-c2cccnc2)cn1`, the IC50 was 214 nM at Bcr/Abl fusion protein and 12500 nM with K562.
On to `Cc1ccc(NC(=O)c2ccc(CN3CCN(C)CC3)cc2)cc1-n1cc(-c2cccnc2)cn1`, for which the IC50 at Bcr/Abl fusion protein was determined as 50.6 nM; in the assay with K562 it was 1670 nM.
As to `Cc1ccc(NC(=O)c2ccc(Cn3ccnc3)cc2)cc1-n1cc(-c2cccnc2)cn1`, the IC50 at Bcr/Abl fusion protein was found to be 326 nM; with K562 it was 136000 nM.
`Cc1ccc(NC(=O)c2ccc(CN3CCN(CCO)CC3)cc2)cc1-n1cc(-c2cccnc2)cn1`: the IC50 turned out to be 175 nM on Bcr/Abl fusion protein and 98300 nM in the assay with K562.
The matching figures for `CCN1CCN(Cc2ccc(C(=O)Nc3ccc(C)c(-n4cc(-c5cccnc5)cn4)c3)cc2)CC1`: 16.9 nM and 2330 nM.
As for `Cc1ccc(NC(=O)c2ccc(C(F)(F)F)cc2)cc1-n1cc(-c2cccnc2)cn1`, the IC50 on Bcr/Abl fusion protein amounted to 43.3 nM; with K562, 760 nM.
As to `Cc1ccc(NC(=O)c2ccc(CN3CCOCC3)cc2)cc1-n1cc(-c2cccnc2)cn1`, the 50% inhibitory concentration (IC50) on Bcr/Abl fusion protein stood at 178 nM; in the assay with K562 it was 21500 nM.
Regarding `Cc1ccc(NC(=O)c2ccc(CN3CCCC3)cc2)cc1-n1cc(-c2cccnc2)cn1`, the IC50 came out at 117 nM at Bcr/Abl fusion protein and 2740 nM in the assay on K562.
With `CCN(CC)Cc1ccc(C(=O)Nc2ccc(C)c(-n3cc(-c4cccnc4)cn3)c2)cc1`, the IC50 on Bcr/Abl fusion protein came to 129 nM; in the assay with K562, 3260 nM.
For `Cc1ccc(NC(=O)c2cccc(C(F)(F)F)c2)cc1-n1cc(-c2cccnc2)cn1` the same measures were 14.2 nM and 270 nM.

The record behind these values is ChEMBL document CHEMBL3596095, “Design, synthesis, and biological activity of phenyl-pyrazole derivatives as BCR-ABL kinase inhibitors” (Bioorg Med Chem, 2015).
